Test results: patent US11491127B2, “Therapeutic use of compounds” (UCL BUSINESS LTD, priority 2010, dated 2022)
Like-named read-outs stand apart in the source and are kept apart here.

Key:
[1] = system: phosphoinositide (PIP and PIP2) turnover in Dictyostelium AX2 cells; assay: Dictyostelium phospholipid labelling (PIP and PIP2 turnover); type: cell-based, Dictyostelium discoideum; conditions: for activity at 500 µM: Dictyostelium, 0.1 h
Method: Phospholipid labelling was quantified using a Typhoon phosphor-imager. Even loading was determined using total lipid stain with copper sulphate.

[2] = system: release of 3H arachidonic acid / palmitic acid radiolabel from Dictyostelium cells; assay: Fatty acid release (3H radiolabel release from labelled cells); type: cell-based, Dictyostelium discoideum; conditions: for activity at 500 µM: Dictyostelium, 0.5 h, 3H-AA labelled cells, 0.5 mM treatment, read-out: AA release [% of control]; for effect of PLA2 inhibitors on radiolabel release from 3H-AA cells: BEL 80 μM, MAFP 50 μM, BPB 20 μM, cocktail of all three
[3] = Table 2; cited from earlier work
[4] = system: uptake of 3H arachidonic acid / palmitic acid into Dictyostelium cells; assay: Fatty acid uptake (3H radiolabel incorporation into cells); type: cell-based, Dictyostelium discoideum
[5] = system: inositol levels in Dictyostelium cells; assay: Inositol levels in treated Dictyostelium cells; type: cell-based, Dictyostelium discoideum; conditions: time period causing phosphoinositide attenuation (9 min)
Method: Following a 6 min incubation, labelling solution was removed and cells were lysed in acidified methanol and phospholipids were separated as previously detailed (Williams et al., 1999). Phospholipid labelling was quantified using a Typhoon phosphor-imager. Even loading was determined using total lipid stain with copper sulphate. Inositol levels were measured from five hour developed cells (similar to phospholipid labelling), following lyophilisation, as previously described (Maslanski & Busa, 1990).

[6] = system: PTZ-induced epileptiform activity in entorhinal cortex-hippocampal slices; assay: In vitro PTZ acute seizure model, entorhinal cortex-hippocampus slices; type: cell-based, rat; conditions: PTZ 2 mM, [K+] 6 mM; compounds equimolar 1 mM; 30 to 40 minutes after application
Method: The rats (p21) were decapitated after killing by intraperitoneal injection with an overdose of pentobarbitone (500 mg/kg). The brain was removed and placed in ice-cold sucrose solution in mM: NaCl 87, KCl 2.5, MgCl2 7, CaCl2 0.5, NaH2PO4 1.25, sucrose 75, glucose 25, equilibrated with 95% 02/5% CO2 (pH 7.4). Horizontal combined entorhinal cortex-hippocampus slices (350 μm) were prepared with a Leica vibratome (Leica V T1200S) and were then stored in an interface chamber that contained artificial cerebrospinal fluid solution (aCSF) containing in mM: NaCl 119, KCl 2.5, MgSO4 4, CaCl2 4, NaHCO326.2, NaH2PO4 1, glucose 11, and gassed with 95% O2/5% CO2. They were stored for over one hour before being transferred to a submersion recording chamber continually perfused with carbogenated aCSF for recording. Field potential recordings were made by placing glass microelectrodes (˜1-2 MΩ) filled with aCSF solution in stratum radiatum of CA1. Bipolar stimulating electrodes were positioned in the Schaffer collateral/commissural fibre pathway in stratum radiatum to confirm slice viability. In the PTZ acute seizure model, PTZ (2 mM) was added to the perfusate and [K+] was increased to 6 mM in order to induce epileptiform activity (Armand et al., 1998). In the low Mg^2+ acute seizure model, Mg^2+ free aCSF was applied to generate rhythmic short recurrent discharges. Novel anticonvulsants were applied once the frequency and amplitude of the epileptiform discharges were stable over a period of 10 min. Anticonvulsant effects were evaluated by measuring the variation of frequency of the discharges every minute. The data acquired from the 30 to 40 minutes after application novel anticonvulsants were compared by ANOVA followed by post-hoc testing using Tukey test, using SPSS statistical analysis.

[7] = read-out: PIP Level (% control), Table 1, 0.5 mM compound, 3 min pre-treatment + 6 min labelling, wild type Dictyostelium
[8] = read-out: PIP level % control, Table 2, VPA and straight chain acids in Dictyostelium
[9] = Table 1, 0.5 mM compound, 3 min pre-treatment + 6 min labelling, wild type Dictyostelium
[10] = Table 1, wild type Dictyostelium

C=CCC(C)(C)C(=O)O [2,2-dimethyl-4-pentenoic acid]
activity at 500 µM [1, 7]: 60%

CC(C)C(C(=O)O)C(C)C [DIA, diisopropylacetic acid]
activity at 500 µM [1, 7]: 18.6%

CCCCCCCC(=O)O [octanoic acid]
activity at 500 µM [1, 7]: 16.7%
activity at 500 µM [1, 8]: 16.7%
activity at 500 µM ([2]; Table 3, 30 min): 72%
pKa [3]: 4.89

O=C(O)C(c1ccccc1)c1ccccc1 [Diphenylacetic acid, 2,2-diphenylacetic acid]
activity at 500 µM [1, 7]: 39%

CC1(C)C(C(=O)O)C1(C)C [TMCA, tetramethylcyclopropane carboxylic acid]
PIP Level (% control) [1, 9]: 33.9 % control

CCCCCCC(=O)O [heptanoic acid]
activity at 500 µM [1, 7]: 31.2%
activity at 500 µM [1, 8]: 31.2%
pKa [3]: 4.89

CCCC(C(N)=O)C(C)C (stereo not drawn) [PID, propylisopropylacetamide]
activity at 500 µM [1, 7]: 59%

CNC(=O)C1C(C)(C)C1(C)C [MTMCD, N-methyl-tetramethyl-cyclopropane carboxamide]
PIP Level (% control) [1, 9]: 50.8 % control

4-hexenoic acid, (cis + trans)
PIP Level (% control) [1, 9]: 58 % control

CCCCC(CC)CCC(=O)O (stereo not drawn) [4-ethyloctanoic acid]
activity at 500 µM [1, 7]: 13.2%
activity at 500 µM ([2]; Table 3, 30 min): 87%

CCCCC(C)C(=O)O (stereo not drawn) [2-methylhexanoic acid]
activity at 500 µM [1, 7]: 68.1%

CCCOC(=O)C(C)CCC (stereo not drawn) [n-propyl 2-methylvalerate]
activity at 500 µM [1, 7]: 121%

latrunculin
effect on VPA-induced AA uptake ([4]; latrunculin 10 μM): failed to attenuate
fatty acid uptake in control cells ([4]; latrunculin 10 μM): decreased uptake

CCC(C)CCC(=O)O (stereo not drawn) [4-methylhexanoic acid]
activity at 500 µM [1, 7]: 68%

CCCC(C(=O)O)C(C)C (stereo not drawn) [PIA, propylisopropylacetic acid]
activity at 500 µM [1, 7]: 15.4%
inhibitory effect on radiolabel release ([2]; 3H-AA, FIG. 9): strong
effect on 3H-AA uptake compared with VPA ([4]; 3H-AA, FIG. 9): elevated uptake

CCC(C)CC(=O)O (stereo not drawn) [3-methylpentanoic acid]
activity at 500 µM [1, 7]: 64%

CCCCCCCCC(=O)O [nonanoic acid]
activity at 500 µM [1, 7]: 8%
activity at 500 µM [1, 8]: 8%
reduction of PIP2 signalling [1, 10]: 93%
reduction of PIP signalling [1, 10]: 92%
activity at 500 µM ([2]; Table 3, 30 min): 66%
pKa [3]: 4.95
reduction in inositol levels [5]: do not acutely deplete inositol
frequency of epileptiform discharges (seizure discharge frequency) [6]: 20.9±7.5%

O=C(CBr)c1ccc(Br)cc1 [BPB, reference compound]
effect of PLA2 inhibitors on radiolabel release from 3H-AA cells [2]: reduced radiolabel release

CCCCC(CC)C(=O)O (stereo not drawn) [2-ethylhexanoic acid]
activity at 500 µM [1, 7]: 22.2%

CC1(C)C(C(N)=O)C1(C)C [TMCD, tetramethylcyclopropane-carboxamide]
PIP Level (% control) [1, 9]: 72.5 % control

O=C1O/C(=C/Br)CCC1c1cccc2ccccc12 (stereo not drawn) [BEL, reference compound]
effect of PLA2 inhibitors on radiolabel release from 3H-AA cells [2]: reduced radiolabel release

CCCCC(C)(C)C(=O)O [2,2-dimethylhexanoic]
PIP Level (% control) [1, 9]: 29.7 % control

CCCCCCCCC=O [nonanal]
activity at 500 µM [1, 7]: 99%

CC/C=C/C(=O)O [trans-pent-2-enoic acid]
activity at 500 µM [1, 7]: 50.4%

CCCCCCCCC(C)CC(=O)O (stereo not drawn) [3-methylundecanoic acid]
activity at 500 µM [1, 7]: 50%

NCCCC(=O)O [GABA, 4-aminobutanoic acid, reference compound]
activity at 500 µM [1, 7]: 60.8%

CCCCCCCCCCCC(=O)O [dodecanoic acid]
activity at 500 µM [1, 7]: 42%
activity at 500 µM [1, 8]: 42%
activity at 500 µM ([2]; Table 3, 30 min): 89%
pKa [3]: 4.85

CCCCC=O [pentanal]
activity at 500 µM [1, 7]: 52%

CCCCC(=O)O [pentanoic acid]
activity at 500 µM [1, 7]: 66.9%
activity at 500 µM [1, 8]: 66.9%
pKa [3]: 4.84
frequency of epileptiform discharges (seizure discharge frequency) [6]: not seen

CC(C)CCCC(=O)O [5-methylhexanoic acid]
activity at 500 µM [1, 7]: 7.2%

CCCCCC(=O)O [hexanoic acid]
activity at 500 µM [1, 7]: 49.2%
activity at 500 µM [1, 8]: 49.2%

CCCCCCCCC(CO)CCCCCC (stereo not drawn) [2-hexyl-1-decanol]
activity at 500 µM [1, 7]: 191%

CCC(C)C(CC)C(N)=O (stereo not drawn) [valnocatmide, 2-ethyl-3-methyl valeramide, reference compound]
PIP Level (% control) [1, 9]: 64 % control

CCCCCCCCC(CCC)C(=O)O (stereo not drawn) [2-propyl-decanoic acid]
activity at 500 µM ([2]; Table 3, 30 min): 56%

CC(C)(C)CC(=O)O [TBA, tert-butylacetic acid]
activity at 500 µM [1, 7]: 21.4%

CCCCCCCCC(CC)C(=O)O (stereo not drawn) [2-ethyl-decanoic]
activity at 500 µM ([2]; Table 3, 30 min): 73%

CCCCCCC(CCC)C(=O)O (stereo not drawn) [2-propyloctanoic acid]
activity at 500 µM ([2]; Table 3, 30 min): 45%
radiolabel release activity relative to control ([2]; Table 3, 30 min, 0.5 mM): ≤ 45 % of control
frequency of epileptiform discharges (seizure discharge frequency) [6]: 5.3±3.3%

CCCC(C)C(=O)O (stereo not drawn) [2-methylpentanoic acid]
activity at 500 µM [1, 7]: 59%

CCCCCCCCCCCCCCCCC(=O)O [heptadecanoic acid]
activity at 500 µM [1, 7]: 92.3%
activity at 500 µM [1, 8]: 92.3%
pKa [3]: 4.78

CCCCCC(C)C(=O)O (stereo not drawn) [2-methylheptanoic]
PIP Level (% control) [1, 9]: 16.1 % control

CCCCC(=O)OC [methylvalerate]
activity at 500 µM [1, 7]: 46%

CCCCCC(C)CCC(=O)O (stereo not drawn) [4-methylnonanoic acid]
activity at 500 µM [1, 7]: 45%
activity at 500 µM ([2]; Table 3, 30 min): 63%

CCCCCCC(CO)CCCC (stereo not drawn) [2-butyl-1-octanol]
activity at 500 µM [1, 7]: 93%

CC(CC(=O)O)CC(C)(C)C (stereo not drawn) [3,5,5-trimethylhexanoic acid]
activity at 500 µM [1, 7]: 32%

CCCCCCCC=O [octanal]
activity at 500 µM [1, 7]: 260%

Tert-butyl amide
PIP Level (% control) [1, 9]: 47.6 % control

C=CC(C)CC(=O)O (stereo not drawn) [3-methyl-4-pentenoic acid]
activity at 500 µM [1, 7]: 84%

CCCC(CO)CCC [2-propyl-1-pentanol]
activity at 500 µM [1, 7]: 101%

CCCCCCCCCC(=O)O [decanoic acid]
activity at 500 µM [1, 7]: 12.9%
activity at 500 µM [1, 8]: 12.9%
activity at 500 µM ([2]; Table 3, 30 min): 62%
frequency of epileptiform discharges (seizure discharge frequency) [6]: 0.23±0.23%

CCCCCCC(CCCC)C(=O)O (stereo not drawn) [2-butyloctanoic acid]
frequency of epileptiform discharges (seizure discharge frequency) [6]: 5.2±5.0%
